Laboratory results reported in patent US9850283B2, “Macrocyclic inhibitors of the PD-1/PD-L1 and CD80(B7-1)/PD-L1 protein/protein interactions” (BRISTOL-MYERS SQUIBB COMPANY, priority 2013, dated 2017).
Read-outs that look alike come from different tables or passages of the source. Positions of bridges follow the written chain, without caps; N, C: chain ends. Non-standard residues stand in square brackets, D forms with d. Residues, ends and D or L forms follow the SMILES beside them. ξ: configuration not given here. Tyr(3-Br) = N[C@@H](Cc1ccc(O)c(Br)c1)C(=O)O; Pro(4S-NH2) = N[C@@H]1CN[C@H](C(=O)O)C1; Ala(2-furyl) = N[C@@H](Cc1ccco1)C(=O)O; Bta = N[C@@H](Cc1csc2ccccc12)C(=O)O; Hyp = O=C(O)[C@@H]1C[C@@H](O)CN1; NMeF = CN[C@@H](Cc1ccccc1)C(=O)O; NMeNle = CCCC[C@H](NC)C(=O)O; NMeM = CN[C@@H](CCSC)C(=O)O; hSer = N[C@@H](CCO)C(=O)O; NMeA = CN[C@@H](C)C(=O)O; Dab = NCC[C@H](N)C(=O)O; Abu = CC[C@H](N)C(=O)O; Dap = NC[C@H](N)C(=O)O; ξC = NC(CS)C(=O)O; Sar = CNCC(=O)O

Key:
Human PD-L1/PD-1 = molecular target: T1, Human PD-L1/PD-1 (Homo sapiens, UniProt Q9NZQ7); test: HTRF PD-1-Ig/PD-L1-His binding assay (human PD-L1); settings: cluster symbol; read-out: HTRF IC50 cluster
T1 construct: made in house; host or cells: HEK293T
T1 sequence (Q9NZQ7 with tags, fused parts or gaps): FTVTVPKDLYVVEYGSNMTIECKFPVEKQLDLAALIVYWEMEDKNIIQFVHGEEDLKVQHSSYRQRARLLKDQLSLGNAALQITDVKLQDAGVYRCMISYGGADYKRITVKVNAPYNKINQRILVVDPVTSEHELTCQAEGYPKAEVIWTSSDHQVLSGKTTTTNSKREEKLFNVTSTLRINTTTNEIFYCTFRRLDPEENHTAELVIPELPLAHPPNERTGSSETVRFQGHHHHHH
Summary of the method: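 Ig- and His-fused extracellular PD-1/PD-L1 binding in BSA/Tween-20 dPBS. HTRF with Eu anti-Ig (1 nM final) and APC anti-His (20 nM final).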

[1] = molecular target: T2, LK35.2-hPD-L1 cells / PE-labeled PD-1-Ig (Homo sapiens, UniProt Q9NZQ7); test: LK35.2-hPD-L1 cell binding high-content screening assay; type: cell-based; settings: cluster symbol, read-out: CBA IC50 cluster
T2 construct: expressed in transfected cells; host or cells: LK35.2 mouse B cell line
T2 sequence (Q9NZQ7 19-290): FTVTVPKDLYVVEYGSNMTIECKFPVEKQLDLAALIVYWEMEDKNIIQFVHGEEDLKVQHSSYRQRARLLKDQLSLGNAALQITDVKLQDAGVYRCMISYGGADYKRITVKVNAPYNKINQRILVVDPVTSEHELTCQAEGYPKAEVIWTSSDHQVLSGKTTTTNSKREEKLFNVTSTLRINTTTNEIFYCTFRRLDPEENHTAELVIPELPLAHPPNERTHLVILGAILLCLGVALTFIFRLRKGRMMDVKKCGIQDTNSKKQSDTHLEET
Summary of the method: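 Readout: high-content imaging of PE-PD-1-Ig bound to LK35.2-hPD-L1 cells. Cells plated overnight (RPMI/10% FCS); compound + 1 nM PE-PD-1-Ig, 1 h, 37 °C; 3× dPBS wash before imaging.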

[2] = cell line of CBA not given (LK35.2-hPD-L1 or 293T-hPD-L1)
[3] = cell binding assay, cell line not given

| IC50 (Human PD-L1/PD-1) [nM] | IC50 [1, 2] [nM] | IC50 [1, 3] [nM] | SMILES |
| --- | --- | --- | --- |
| 6.76 to 30.3 |  | 4.78 to 72.9 | CCCC[C@H]1C(=O)N[C@@H](CCCNC(=N)N)C(=O)NC(C(=O)NCC(N)=O)CSCC(=O)N[C@@H](Cc2ccc(O)cc2)C(=O)N(C)[C@@H](C)C(=O)N[C@@H](CC(N)=O)C(=O)N2CCC[C@H]2C(=O)N[C@@H](Cc2cnc[nH]2)C(=O)N[C@@H](CO)C(=O)N2C[C@H](O)C[C@H]2C(=O)N[C@@H](Cc2c[nH]c3ccccc23)C(=O)N[C@@H](CO)C(=O)N[C@@H](Cc2c[nH]c3ccccc23)C(=O)N(C)[C@@H](CCSC)C(=O)N1C (stereo partly shown) [Example 9113] ({CH2CO}-Y[NMeA]NPHS[Hyp]WSW[NMeM][NMeNle]R[ξC]G-NH2; thioether N-14) |
| 0.385 to 6.74 |  | 0.158 to 4.71 | CCCC[C@H]1C(=O)N(C)[C@@H](CCCC)C(=O)N[C@@H](CCCNC(=N)N)C(=O)NC(C(=O)NCC(N)=O)CSCC(=O)N[C@@H](Cc2ccc(O)cc2)C(=O)N(C)[C@@H](C)C(=O)N[C@@H](CC(N)=O)C(=O)N2CCC[C@H]2C(=O)N[C@@H](Cc2cnc[nH]2)C(=O)N[C@@H](CC(C)C)C(=O)N2CCC[C@H]2C(=O)N[C@@H](Cc2c[nH]c3ccccc23)C(=O)N[C@@H](CCO)C(=O)N[C@@H](Cc2csc3ccccc23)C(=O)N1C (stereo partly shown) [Example 9052] ({CH2CO}-Y[NMeA]NPHLPW[hSer][Bta][NMeNle][NMeNle]R[ξC]G-NH2; thioether N-14) |
| 0.385 to 6.74 |  | 0.158 to 4.71 | CCCC[C@H]1C(=O)N(C)[C@@H](CCCC)C(=O)N[C@@H](CCN)C(=O)N[C@H](C(=O)NCC(N)=O)CSCC(=O)N[C@@H](Cc2ccc(O)c(Br)c2)C(=O)N(C)[C@@H](C)C(=O)N[C@@H](CC(N)=O)C(=O)N2CCC[C@H]2C(=O)N[C@@H](Cc2cnc[nH]2)C(=O)N[C@@H](CC(C)C)C(=O)N2C[C@H](O)C[C@H]2C(=O)N[C@@H](Cc2c[nH]c3ccccc23)C(=O)N[C@@H](CCN)C(=O)N[C@@H](Cc2c[nH]c3ccccc23)C(=O)N1C [Example 6036] ({CH2CO}-[Tyr(3-Br)][NMeA]NPHL[Hyp]W[Dab]W[NMeNle][NMeNle][Dab]CG-NH2; thioether N-14) |
| 0.385 to 6.74 |  | 4.78 to 72.9 | CCCC[C@H]1C(=O)N(C)[C@@H](CCCC)C(=O)N[C@@H](C)C(=O)N[C@H](C(=O)NCC(N)=O)CSCC(=O)N[C@@H](Cc2ccc(O)cc2)C(=O)N(C)[C@@H](C)C(=O)N[C@@H](CCN)C(=O)N2CCC[C@H]2C(=O)N[C@@H](Cc2c[nH]cn2)C(=O)N[C@@H](CCC(=O)O)C(=O)N2C[C@H](O)C[C@H]2C(=O)N[C@@H](Cc2c[nH]c3ccccc23)C(=O)N[C@@H](CO)C(=O)N[C@@H](Cc2c[nH]c3ccccc23)C(=O)N1C [Example 5087] ({CH2CO}-Y[NMeA][Dab]PHE[Hyp]WSW[NMeNle][NMeNle]ACG-NH2; thioether N-14) |
| 0.385 to 6.74 |  | 0.158 to 4.71 | CCCC[C@H]1C(=O)N(C)[C@@H](C)C(=O)N[C@@H](CCCNC(=N)N)C(=O)NC(C(=O)NCC(N)=O)CSCC(=O)N[C@@H](Cc2ccc(O)cc2)C(=O)N(C)[C@@H](C)C(=O)N[C@@H](CC(N)=O)C(=O)N2CCC[C@H]2C(=O)N[C@@H](Cc2cnc[nH]2)C(=O)N[C@@H](CC(C)C)C(=O)N2C[C@H](O)C[C@H]2C(=O)N[C@@H](Cc2c[nH]c3ccccc23)C(=O)N[C@@H](CO)C(=O)N[C@@H](Cc2c[nH]c3ccccc23)C(=O)N1C (stereo partly shown) [Example 9055] |

Continued, compound first:

| SMILES | IC50 (Human PD-L1/PD-1) [nM] | IC50 [1, 2] [nM] | IC50 [1, 3] [nM] |
| --- | --- | --- | --- |
| CCCC[C@H]1C(=O)N(C)[C@@H](CCCC)C(=O)N[C@@H](CCCNC(=N)N)C(=O)N[C@H](C(=O)NCC(N)=O)CSCC(=O)N[C@@H](Cc2ccc(O)cc2)C(=O)N(C)[C@@H](C)C(=O)N[C@@H](CC(N)=O)C(=O)N2CCC[C@H]2C(=O)N[C@@H](Cc2cnc[nH]2)C(=O)N[C@@H](CC(C)C)C(=O)N2C[C@@H](N)C[C@H]2C(=O)N[C@@H](Cc2c[nH]c3ccccc23)C(=O)N[C@@H](CO)C(=O)N[C@@H](Cc2csc3ccccc23)C(=O)N1C [Example 1037] ({CH2CO}-Y[NMeA]NPHL[Pro(4S-NH2)]WS[Bta][NMeNle][NMeNle]RCG-NH2; thioether N-14) | 6.76 to 30.3 | 0.158 to 4.71 |  |
| CCCC[C@H]1C(=O)N(C)[C@@H](CCCC)C(=O)N[C@@H](CCCNC(=N)N)C(=O)N[C@H](C(=O)NCC(N)=O)CSCC(=O)N[C@@H](Cc2ccc(O)cc2)C(=O)N(C)[C@@H](C)C(=O)N[C@@H](CC(=O)O)C(=O)N2CCC[C@H]2C(=O)N[C@@H](Cc2c[nH]cn2)C(=O)N[C@@H](CCCCN)C(=O)N2C[C@H](O)C[C@H]2C(=O)N[C@@H](Cc2c[nH]c3ccccc23)C(=O)N[C@@H](CCCCN)C(=O)N[C@@H](Cc2c[nH]c3ccccc23)C(=O)N1C [Example 5110] ({CH2CO}-Y[NMeA]DPHK[Hyp]WKW[NMeNle][NMeNle]RCG-NH2; thioether N-14) | 0.385 to 6.74 |  | 0.158 to 4.71 |
| CCCC[C@H]1C(=O)N2CCC[C@@H]2C(=O)N[C@@H](CC(=O)O)C(=O)N[C@@H](C(C)C)C(=O)N(C)[C@@H](Cc2ccccc2)C(=O)N[C@@H](Cc2ccc(O)cc2)C(=O)N(C)CC(=O)N[C@@H](Cc2c[nH]c3ccccc23)C(=O)N[C@@H](Cc2ccc(O)cc2)C(=O)N[C@@H](CC(C)C)C(=O)N[C@H](C(=O)NCC(N)=O)CSCC(=O)N[C@@H](Cc2ccccc2)C(=O)N(C)[C@@H](Cc2ccccc2)C(=O)N1C [Example 3560] (HELM PEPTIDE1{[O=C(C[*:3])[*:2]].F.[meF].[CCCC[C@@H](C(=O)[*:2])N(C)[*:1]].[dP].D.V.[meF].Y.[Sar].W.Y.L.C.G.[am]}$PEPTIDE1,PEPTIDE1,1:R3-14:R3$$$V2.0) | 6.76 to 30.3 |  | 0.158 to 4.71 |
| CCCC[C@H]1C(=O)N(C)[C@@H](CCCC)C(=O)N[C@@H](CCCNC(=N)N)C(=O)N[C@H](C(=O)NCC(N)=O)CSCC(=O)N[C@@H](Cc2ccc(O)cc2)C(=O)N2CCC[C@H]2C(=O)N[C@@H](CC(N)=O)C(=O)N2CCC[C@H]2C(=O)N[C@@H](Cc2cnc[nH]2)C(=O)N[C@@H](CC(C)C)C(=O)N2CCC[C@H]2C(=O)N[C@@H](Cc2c[nH]c3ccccc23)C(=O)N[C@@H](CO)C(=O)N[C@@H](Cc2c[nH]c3ccccc23)C(=O)N1C [Example 1136] ({CH2CO}-YPNPHLPWSW[NMeNle][NMeNle]RCG-NH2; thioether N-14) | 6.76 to 30.3 | 4.78 to 72.9 |  |
| CCCC[C@H]1C(=O)N(C)[C@@H](CCCC)C(=O)N[C@@H](CCCNC(=N)N)C(=O)N[C@H](C(=O)NCC(N)=O)CSCC(=O)N[C@@H](Cc2ccco2)C(=O)N(C)[C@@H](C)C(=O)N[C@@H](CC(N)=O)C(=O)N2CCC[C@H]2C(=O)N[C@@H](Cc2cnc[nH]2)C(=O)N[C@@H](CC(C)C)C(=O)N(C)CC(=O)N[C@@H](Cc2c[nH]c3ccccc23)C(=O)N[C@@H](CO)C(=O)N[C@@H](Cc2c[nH]c3ccccc23)C(=O)N1C [Example 1099] ({CH2CO}-[Ala(2-furyl)][NMeA]NPHL[Sar]WSW[NMeNle][NMeNle]RCG-NH2; thioether N-14) | > 30.5 | > 74.3 |  |
| CCCC[C@H]1C(=O)N(C)CC(=O)N[C@@H](CCCNC(=N)N)C(=O)N[C@@H](C(C)C)C(=O)N(C)[C@@H](Cc2ccccc2)C(=O)N[C@@H](Cc2ccc(O)cc2)C(=O)N(C)CC(=O)N[C@@H](Cc2c[nH]c3ccccc23)C(=O)N[C@@H](Cc2ccc(O)cc2)C(=O)N[C@@H](CC(C)C)C(=O)N[C@H](C(=O)NCC(N)=O)CSCC(=O)N[C@@H](Cc2ccccc2)C(=O)N(C)[C@@H](Cc2ccccc2)C(=O)N1C [Example 3501] (HELM PEPTIDE1{[O=C(C[*:3])[*:2]].F.[meF].[CCCC[C@@H](C(=O)[*:2])N(C)[*:1]].[Sar].R.V.[meF].Y.[Sar].W.Y.L.C.G.[am]}$PEPTIDE1,PEPTIDE1,1:R3-14:R3$$$V2.0) | 6.76 to 30.3 |  | 4.78 to 72.9 |
| CCCC[C@H]1C(=O)N(C)[C@@H](Cc2ccccc2)C(=O)N[C@@H](CN)C(=O)N[C@H](C(=O)NCC(N)=O)CSCC(=O)N[C@@H](Cc2ccc(O)cc2)C(=O)N(C)[C@@H](C)C(=O)N[C@@H](CC(N)=O)C(=O)N2CCC[C@H]2C(=O)N[C@@H](Cc2c[nH]cn2)C(=O)N[C@@H](CCC(=O)O)C(=O)N2C[C@H](O)C[C@H]2C(=O)N[C@@H](Cc2c[nH]c3ccccc23)C(=O)N[C@@H](CCN)C(=O)N[C@@H](Cc2c[nH]c3ccccc23)C(=O)N1C [Example 5147] ({CH2CO}-Y[NMeA]NPHE[Hyp]W[Dab]W[NMeNle][NMeF][Dap]CG-NH2; thioether N-14) | 0.385 to 6.74 |  | 4.78 to 72.9 |
| CCCC[C@H]1C(=O)N(C)[C@@H](CCCC)C(=O)N[C@@H](CCN)C(=O)N[C@H](C(=O)NCC(N)=O)CSCC(=O)N[C@@H](Cc2ccc(O)cc2)C(=O)N(C)[C@@H](C)C(=O)N[C@@H](CC(N)=O)C(=O)N2CCC[C@H]2C(=O)N[C@@H](Cc2cnc[nH]2)C(=O)N[C@@H](CCC(=O)O)C(=O)N2C[C@H](O)C[C@H]2C(=O)N[C@@H](Cc2csc3ccccc23)C(=O)N[C@@H](CO)C(=O)N[C@@H](Cc2c[nH]c3ccccc23)C(=O)N1C [Example 5054] ({CH2CO}-Y[NMeA]NPHE[Hyp][Bta]SW[NMeNle][NMeNle][Dab]CG-NH2; thioether N-14) | > 30.5 |  | > 74.3 |
| CCCC[C@H]1C(=O)N(C)[C@@H](CCCC)C(=O)N[C@@H](CC)C(=O)N[C@H](C(=O)NCC(N)=O)CSCC(=O)N[C@@H](Cc2ccc(O)cc2)C(=O)N(C)[C@@H](C)C(=O)N[C@@H](CC(N)=O)C(=O)N2CCC[C@H]2C(=O)N[C@@H](Cc2c[nH]cn2)C(=O)N[C@@H](CCC(N)=O)C(=O)N2C[C@H](O)C[C@H]2C(=O)N[C@@H](Cc2c[nH]c3ccccc23)C(=O)N[C@@H](CO)C(=O)N[C@@H](Cc2c[nH]c3ccccc23)C(=O)N1C [Example 5078] ({CH2CO}-Y[NMeA]NPHQ[Hyp]WSW[NMeNle][NMeNle][Abu]CG-NH2; thioether N-14) | 0.385 to 6.74 |  | 0.158 to 4.71 |
